Reference: patent EP0392663A1, “Carboline derivative as a 5-HT3 receptor antagonist” (ONO PHARMACEUTICAL CO., LTD., priority 1989, dated 1990)
Where a name gives a salt, the structure may show the parent alone.

Tests used:
[1] = Acute toxicity (LD₅₀) in mice; details: mouse, in vivo
Description: It was confirmed that the toxicity of the compounds of the present invention were very low. Therefore, the compounds of the present invention may be considered to be sufficiently safe and suitable for pharmaceutical use.
For example, the values of acute toxicity (LD₅₀) of 2-(5-methylimidazol-4-ylmethyl)-5-methyl-1,2-dihydro-γ--carbolin-1-one hydrochloride was 290 mg/kg animal body weight by oral administration and 48 mg/kg animal body weight by intravenous administration in mice, respectively.

[2] = test system: 5-HT₃ receptor; test: Suppression of 5-HT-induced reflex bradycardia in urethane-anesthetized rats (5-HT₃ receptor antagonism in vivo); set-up: species or system Male Wistar rats; details: 5-HT i.v. 2 mins after
Description: Male Wistar rats were urethane-anesthetized and fixed. Cannulas were inserted to carotid artery and thigh vein as used for the recording of blood pressure end heart beat, and for the administration of compounds, respectively.
Several amounts of compound of the present invention were administered to the vein or duodenum. 5-HT was administered rapidly to the vein, 2 mins after. The suppression effect of the compounds was confirmed by the measurement of reflex bradycardia generated. (Nature 316, 11 (1985).)

In the case of Cc1[nH]cnc1Cn1ccc2c(c1=O)c1ccccc1n2C [2-(5-methylimidazol-4-ylmethyl)-5-methyl-1,2-dihydro-γ-carbolin-1-one hydrochloride], the LD50 ([1]; intravenous administration) is reported as 48 mg/kg, the LD50 ([1]; oral administration) is reported as 290 mg/kg and the ID₅₀ i.d. ([2]; compound administered to the duodenum) is reported as 7.7 mg/kg. It also gave an ID₅₀ i.v. ([2]; compound administered to the vein) of 0.3 mg/kg.
